From US20100285000A1, “USE OF VEGFR-2 INHIBITORS FOR TREATING METASTATIC CANCER” (BRISTOL-MYERS SQUIBB COMPANY, priority 2007, published 2010)

Tests used:
[1] = system: MDA-MB-231 breast cancer cells; assay: MDA-MB-231 orthotopic model of tumor metastasis (lung metastases after resection of the primary tumor); assay type: in vivo; conditions: human MDA-MB-231 cells in mouse mammary fat pad, tumors resected day 24, treatment from day 28, IP twice weekly; Comp-I 30 mg/kg, bevacizumab 5 mg/kg; control cohort 84%
Source text: MDA-MB-231 breast tumor cells implanted in mammary fat pad of mice and resultant tumors resected day 24. Drug treatment was initiated on day 28 and mice were sacrificed at 118 days and local regrowth and lung metastases evaluated.
Human MDA-MB-231 breast cancer cells were implanted in the mouse mammary fat pads at day 0 (1×10^6 MDA-MB-231 breast cancer cells). The resultant tumors were resected at day 24 and treatment initiated 4 days later (Mean tumor volume at resection=400 mm^3). Treatment groups were as follows: Control: PBS, Comp-I: 30 mg/kg, and bevacizumab 5 mg/kg (100 μL IP injections twice weekly). When mice were sacrificed, the extent of local regrowth and numbers of lung metastases were evaluated.

[2] = Bhuyan et al. Cancer Res. 42, 3532-3537 (1982); cited from earlier work

Row | Molecule | mice showing lung metastases (incidence of metastases) [1] | potency in vitro relative to commonly used anti-cancer drugs (doxorubicin, methotrexate, vincristine) [2]
1 | bevacizumab | 74% | 
2 | COc1c(O)c2c(c3cc(C(=O)N4CCc5c4c(O)c(OC)c4[nH]c(C(=O)N6CC7CC78C6=CC(=O)c6[nH]cc(C)c68)cc54)[nH]c13)CCN2C(N)=O (centres unmarked) [CC-1065] |  | about 1000 fold
